# Publication PMC9807592, “New thioxothiazolidinyl-acetamides derivatives as potent urease inhibitors: design, synthesis, in vitro inhibition, and molecular dynamic simulation” (Scientific Reports, 2023)
# Read-outs that look alike come from different tables or passages of the source.
# Columns and labels:
# urease = urease (Canavalia ensiformis, UniProt P07374); assay: biochemical; format: biochemical
# Procedure: The assay was performed exactly according to our previous report. Briefly, 850 μL of urea and 15 μL urease (0.135 units dissolved in PBS, pH 7.4) were added to 100 μL of the synthesized derivatives at different concentrations. After 30 min, to 100 μL of the incubated solution, 500 μL solution I (5.0 g phenol and 25.0 mg sodium nitroprusside in 500 mL water) was added followed by the addition of 500 μL of solution II (2.5 g sodium hydroxide, 4.2 mL sodium hypochlorite, and 5% chlorine in 500 mL water) which was further incubated at 37 °C for 30 min. The absorbance was determined by measuring indophenols at 625 nm. Thiourea was used as the standard inhibitor for urease. The IC50 values for all synthesized compounds were calculated using GraphPad Prism software (GraphPad Software, Inc., San Diego, CA)[20].
# [1] = test system: methicillin-resistant Staphylococcus aureus (MRSA) isolates; assay: Antimicrobial activity against resistant isolates; format: cell-based
# Procedure: Regarding the antibacterial activity of 6n and 6o against the standard strain of S. aureus, these derivatives were tested against methicillin-resistant Staphylococcus aureus (MRSA) isolates.
# (§1) Briefly, twofold serial dilutions of the compounds were prepared in Mueller–Hinton Broth (MHB, HiMedia) for bacterial strains and RPMI-1640 (Sigma-Aldrich) for yeast strain (Ranging 1–512 µg/ml). Then, 100 μL of each dilution was transferred into the well of a microtiter plate and inoculated with 100 μL of cell suspension with a final density of 1–5 × 10^3 CFU/ml for yeasts and 1–1.5 × 10^6 cells/ml for bacteria. Plates were incubated at proper temperature overnight, and the minimum inhibitory concentration (MIC) of compounds was determined as the lowest concentration that prevented visible growth of tested microorganisms compared with the growth in the control wells (wells without tested compounds). Moreover, the minimum bactericidal/fungicidal concentration (MBC/MFC) of compounds was determined by transferring the 10 µl of clear wells into the agar media. Standard antibacterial and antifungal agents (Ciprofloxacin and Fluconazole) were evaluated. All experiments were performed in duplicate[30],[31].
# [2] = test system: clinical isolate of P. vulgaris; assay: Antimicrobial activity, broth microdilution (CLSI); format: cell-based; conditions: Proteus vulgaris
# Procedure: (§2) Then, 100 μL of each dilution was transferred into the well of a microtiter plate and inoculated with 100 μL of cell suspension with a final density of 1–5 × 10^3 CFU/ml for yeasts and 1–1.5 × 10^6 cells/ml for bacteria. Plates were incubated at proper temperature overnight, and the minimum inhibitory concentration (MIC) of compounds was determined as the lowest concentration that prevented visible growth of tested microorganisms compared with the growth in the control wells (wells without tested compounds). […] All experiments were performed in duplicate[30],[31].
# E. coli ATCC 25922 = assay: Antimicrobial activity, broth microdilution (CLSI); format: cell-based
# Procedure: as §2
# S. aureus ATCC 25923 = assay: Antimicrobial activity, broth microdilution (CLSI); format: cell-based; conditions: Staphylococcus aureus, ATCC25923
# Procedure: as §2
# C. albicans ATCC 10261 = assay: Antimicrobial activity, broth microdilution (CLSI); format: cell-based; conditions: Candida albicans, ATCC10261
# Procedure: The antimicrobial activity of designed compounds was investigated using broth microdilution.
# as §1
# [3] = In vitro cytotoxic evaluation (MTT assay); format: cell-based; conditions: human, MOLT-4 cells
# Procedure: MOLT-4 (human acute lymphoblastic leukemia) cells were cultures in RPMI-1640 medium supplemented with 10% heat-inactivated fetal bovine serum. Cell viability was measured by the MTT assay. MOLT-4 cells were seeded into 96-well micro-culture plates. After 24 h, the culture medium was replaced with a medium containing different concentrations of newly synthesized derivatives. Control wells were supplemented with the same volume of growth medium not containing any drugs. Cells were then incubated at 37 °C for 72 h. At the end of the exposure time, the medium was removed and MTT solution of 0.5 mg/ml was added to each well. The plates were incubated at 37 °C for 4 h, after which DMSO was added to each well to solubilize the formed formazan crystals, and the absorbance of each well was read with a microplate reader at 570 nm.
# S. aureus biofilm = assay: Inhibition of biofilm formation (crystal violet assay); format: cell-based; conditions: Staphylococcus aureus, read-out: inhibition in the development of biofilm by S. aureus
# Procedure: To evaluate the ability of the synthesized compounds 6a-i to prevent biofilm formation by standard species of S. aureus (ATCC25923) and MRSA strain, biofilms were pre-formed in 96 well plates, as previously described. Firstly, bacterial strains were inoculated into Tryptic Soy Broth (TSB) medium. The cells were cultivated on a shaker overnight for 180 r/min at 37 °C. Then, the suspension was centrifuged, and the cells were washed with PBS three times. Diluted cell suspension of strains was added into the wells with 1 × 10^6 final concentration. The plates were incubated for 4 h at 37 °C. After that, 100 μl of each of the dissolved compounds was added to a final concentration of […] in the wells. The plates were further incubated for 24 h at 37 °C. Following incubation, the crystal violet assay was performed to evaluate the inhibition of biofilm formation. For this purpose, the supernatant of the wells was aspirated gently, and the wells were washed three times with sterile distilled water. […] Assessment of biofilm formation was performed by transferring 100 μl of the destaining solution to a new plate and measuring the absorbance at 590 nm using a microplate reader. […] The mean absorbance (OD590 nm) of the samples was determined, and percentage inhibition was obtained using Eq. (1) as follows: 1 Percentageinhibition:ODblank-ODtest×100/ODblank
# [4] = Escherichia coli, ATCC25922, read-out: MIC
# urease, sequence (P07374 whole entry, looked up): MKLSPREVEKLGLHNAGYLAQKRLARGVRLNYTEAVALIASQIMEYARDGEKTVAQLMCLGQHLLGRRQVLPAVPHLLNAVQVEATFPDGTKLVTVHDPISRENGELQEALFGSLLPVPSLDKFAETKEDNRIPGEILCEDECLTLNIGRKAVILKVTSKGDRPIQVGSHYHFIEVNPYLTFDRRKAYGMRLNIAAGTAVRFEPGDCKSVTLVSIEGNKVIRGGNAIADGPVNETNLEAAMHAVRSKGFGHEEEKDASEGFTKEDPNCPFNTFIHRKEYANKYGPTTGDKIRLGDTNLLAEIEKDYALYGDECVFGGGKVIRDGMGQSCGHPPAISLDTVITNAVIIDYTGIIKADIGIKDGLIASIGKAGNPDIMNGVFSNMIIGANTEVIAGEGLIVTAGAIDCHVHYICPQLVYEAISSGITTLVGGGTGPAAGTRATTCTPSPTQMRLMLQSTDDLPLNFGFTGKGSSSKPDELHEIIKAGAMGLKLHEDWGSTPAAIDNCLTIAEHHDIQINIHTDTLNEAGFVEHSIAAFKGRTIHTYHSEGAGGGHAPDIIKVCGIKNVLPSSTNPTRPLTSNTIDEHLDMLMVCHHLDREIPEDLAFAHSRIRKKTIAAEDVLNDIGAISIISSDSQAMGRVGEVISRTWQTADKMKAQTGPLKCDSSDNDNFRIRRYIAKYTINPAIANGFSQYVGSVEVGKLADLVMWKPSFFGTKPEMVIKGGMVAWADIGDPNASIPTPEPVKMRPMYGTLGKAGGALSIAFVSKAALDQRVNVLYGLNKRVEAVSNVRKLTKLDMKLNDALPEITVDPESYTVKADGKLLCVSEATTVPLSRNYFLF
Structure (SMILES),IC50 (urease),MIC [1],MIC [2],MIC (E. coli ATCC 25922; [4]),MBC (S. aureus ATCC 25923),MIC (S. aureus ATCC 25923),MIC (C. albicans ATCC 10261),"viability at 72 h, 100 µM [3]",melting point,inhibition at 512 µg/mL (S. aureus biofilm),MIC (E. coli ATCC 25922),"MBC (E. coli ATCC 25922; Escherichia coli, ATCC25922)"
"CCCNC(=O)CC1SC(=S)N(CC(C)C)C1=O (stereo not shown) [Compound 6n, 2-(3-isobutyl-4-oxo-2-thioxothiazolidin-5-yl)-N-propylacetamide]",2.38 ± 0.49 µM,128 µg/mL,> 512 µg/mL,> 512 µg/mL,> 512 µg/mL,128 µg/mL,> 512 µg/mL,96.4 ± 2.2%,160 to 162 °C,37%,–,–
"C=CCNC(=O)CC1SC(=S)N(CC(C)C)C1=O (stereo not shown) [Compound 6o, N-allyl-2-(3-isobutyl-4-oxo-2-thioxothiazolidin-5-yl)acetamide]",9.27 ± 1.65 µM,512 µg/mL,> 512 µg/mL,512 µg/mL,256 µg/mL,128 µg/mL,> 512 µg/mL,97.3 ± 3.5%,164 to 166 °C,27%,512 µg/mL,> 512 µg/mL
